Assay results from patent US20150307520A1, “NOVEL HETEROARYL AND HETEROCYCLE COMPOUNDS, COMPOSITIONS AND METHODS THEREOF” (HUTCHISON MEDIPHARMA LIMITED, priority 2012, published 2015).

How the values were obtained:
Assay type in all cases: biochemical
[1] = target: p110β/p85α (Homo sapiens, UniProt P42338); experiment: Transcreener KINASE Assay, kinase inhibition of p110β/p85α; conditions: for PI3Kβ IH % @ 1 uM: 1 uM test compound; for IC50: read-out: PI3Kβ IC50
Protocol: (§1) PI3K kinases including p110α/p85α, p110δ/p85α and p110γ are purchased from Invitrogen, and p110β/p85α is from Millipore.
(§2) Primary screening data and IC50 values are measured using Transcreener™ KINASE Assay (Bellbrook, Catalog #3003-10K). […] It is a universal, homogenous, high throughput screening (HTS) technology using a far-red, competitive fluorescence polarization immunoassay based on the detection of ADP to monitor the activity of enzymes that catalyze group transfer reactions. Briefly, the Transcreener KINASE Assay is designed as a simple two-part, endpoint assay.
(§3) In the first step, the 25 ul kinase reaction is performed by preparing a reaction mixture containing 5 ul test compound (2% DMSO final concentration), 10 ul kinase, buffer (50 mM HEPES, 100 mM NaCl, 1 mM EGTA, 0.03% CHAPS, 3 mM MgCl2, and freshly supplemented 1 mM DTT), and 10 ul 30 uM PIP2/10 uM ATP. The plate is sealed and incubated for 80 min at room temperature. Next, 25 ul ADP detection mix is added per well. The plate is sealed again and incubated for 60 min at room temperature, and then measure fluorescence polarization by Tecan Infinite F500 Reader.
(§4) Data is analyzed and IC50s are generated using the add-in software for Microsoft Excel, Xlfit™ (version 2.0). IH %=(ADP amount under 2% DMSO-ADP amount under test compound)/ADP amount under 2% DMSO.

[2] = target: p110δ/p85α (Homo sapiens, UniProt O00329); experiment: Transcreener KINASE Assay, kinase inhibition of p110δ/p85α; conditions: for PI3Kδ IH % @ 1 uM: 1 uM test compound; for IC50: read-out: PI3Kδ IC50
Sequence of p110δ/p85α (O00329 whole entry): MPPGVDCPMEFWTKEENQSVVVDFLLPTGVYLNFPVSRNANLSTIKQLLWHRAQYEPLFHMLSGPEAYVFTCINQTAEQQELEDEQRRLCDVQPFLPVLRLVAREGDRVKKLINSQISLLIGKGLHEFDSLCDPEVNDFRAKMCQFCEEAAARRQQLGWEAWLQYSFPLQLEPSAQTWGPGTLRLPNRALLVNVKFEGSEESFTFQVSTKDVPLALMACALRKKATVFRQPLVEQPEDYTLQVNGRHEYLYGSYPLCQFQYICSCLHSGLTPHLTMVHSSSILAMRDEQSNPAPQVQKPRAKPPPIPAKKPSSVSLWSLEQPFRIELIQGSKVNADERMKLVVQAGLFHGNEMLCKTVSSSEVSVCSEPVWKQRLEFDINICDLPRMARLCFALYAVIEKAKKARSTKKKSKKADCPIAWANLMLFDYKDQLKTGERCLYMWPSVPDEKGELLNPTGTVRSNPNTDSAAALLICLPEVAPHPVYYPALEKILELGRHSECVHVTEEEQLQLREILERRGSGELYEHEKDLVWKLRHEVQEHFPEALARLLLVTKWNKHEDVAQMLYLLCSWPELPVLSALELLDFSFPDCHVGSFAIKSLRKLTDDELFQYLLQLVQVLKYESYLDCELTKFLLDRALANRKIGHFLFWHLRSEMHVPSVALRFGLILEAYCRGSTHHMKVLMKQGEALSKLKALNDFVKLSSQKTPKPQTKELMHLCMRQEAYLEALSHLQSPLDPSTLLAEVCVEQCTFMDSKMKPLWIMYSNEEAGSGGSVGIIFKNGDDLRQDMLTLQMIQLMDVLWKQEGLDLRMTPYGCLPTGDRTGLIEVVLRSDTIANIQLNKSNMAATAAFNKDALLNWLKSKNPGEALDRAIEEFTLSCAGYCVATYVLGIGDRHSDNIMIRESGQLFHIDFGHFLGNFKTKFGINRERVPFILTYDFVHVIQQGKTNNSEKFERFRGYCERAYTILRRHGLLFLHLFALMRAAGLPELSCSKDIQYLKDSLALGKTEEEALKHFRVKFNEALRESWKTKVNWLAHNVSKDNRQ
Sequence of p110δ/p85α (P27986 whole entry partner): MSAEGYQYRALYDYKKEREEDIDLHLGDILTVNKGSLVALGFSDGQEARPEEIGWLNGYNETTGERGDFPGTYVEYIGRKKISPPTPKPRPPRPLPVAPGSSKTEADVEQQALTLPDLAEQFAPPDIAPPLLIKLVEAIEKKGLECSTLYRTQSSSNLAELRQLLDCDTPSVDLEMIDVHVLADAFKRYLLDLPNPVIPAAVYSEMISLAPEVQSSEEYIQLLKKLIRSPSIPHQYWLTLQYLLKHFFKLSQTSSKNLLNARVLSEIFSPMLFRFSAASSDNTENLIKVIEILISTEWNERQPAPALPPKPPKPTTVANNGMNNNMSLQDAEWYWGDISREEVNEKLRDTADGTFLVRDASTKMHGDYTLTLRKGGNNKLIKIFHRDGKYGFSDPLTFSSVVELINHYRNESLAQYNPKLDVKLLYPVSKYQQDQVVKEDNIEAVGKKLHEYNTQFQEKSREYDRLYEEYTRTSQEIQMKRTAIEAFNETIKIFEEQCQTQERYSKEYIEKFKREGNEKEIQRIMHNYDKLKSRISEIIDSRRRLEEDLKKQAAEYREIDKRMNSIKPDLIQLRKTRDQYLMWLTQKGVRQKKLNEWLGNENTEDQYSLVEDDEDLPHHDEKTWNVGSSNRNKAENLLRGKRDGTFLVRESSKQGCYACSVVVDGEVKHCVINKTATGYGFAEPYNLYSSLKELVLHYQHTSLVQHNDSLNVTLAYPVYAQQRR
Protocol: as §1, §2, §3, §4

[3] = target: p110γ (Homo sapiens, UniProt P48736); experiment: Transcreener KINASE Assay, kinase inhibition of p110γ; conditions: for PI3Kγ IH % @ 1 uM: 1 uM test compound; for IC50: read-out: PI3Kγ IC50
Sequence of p110γ (P48736 whole entry): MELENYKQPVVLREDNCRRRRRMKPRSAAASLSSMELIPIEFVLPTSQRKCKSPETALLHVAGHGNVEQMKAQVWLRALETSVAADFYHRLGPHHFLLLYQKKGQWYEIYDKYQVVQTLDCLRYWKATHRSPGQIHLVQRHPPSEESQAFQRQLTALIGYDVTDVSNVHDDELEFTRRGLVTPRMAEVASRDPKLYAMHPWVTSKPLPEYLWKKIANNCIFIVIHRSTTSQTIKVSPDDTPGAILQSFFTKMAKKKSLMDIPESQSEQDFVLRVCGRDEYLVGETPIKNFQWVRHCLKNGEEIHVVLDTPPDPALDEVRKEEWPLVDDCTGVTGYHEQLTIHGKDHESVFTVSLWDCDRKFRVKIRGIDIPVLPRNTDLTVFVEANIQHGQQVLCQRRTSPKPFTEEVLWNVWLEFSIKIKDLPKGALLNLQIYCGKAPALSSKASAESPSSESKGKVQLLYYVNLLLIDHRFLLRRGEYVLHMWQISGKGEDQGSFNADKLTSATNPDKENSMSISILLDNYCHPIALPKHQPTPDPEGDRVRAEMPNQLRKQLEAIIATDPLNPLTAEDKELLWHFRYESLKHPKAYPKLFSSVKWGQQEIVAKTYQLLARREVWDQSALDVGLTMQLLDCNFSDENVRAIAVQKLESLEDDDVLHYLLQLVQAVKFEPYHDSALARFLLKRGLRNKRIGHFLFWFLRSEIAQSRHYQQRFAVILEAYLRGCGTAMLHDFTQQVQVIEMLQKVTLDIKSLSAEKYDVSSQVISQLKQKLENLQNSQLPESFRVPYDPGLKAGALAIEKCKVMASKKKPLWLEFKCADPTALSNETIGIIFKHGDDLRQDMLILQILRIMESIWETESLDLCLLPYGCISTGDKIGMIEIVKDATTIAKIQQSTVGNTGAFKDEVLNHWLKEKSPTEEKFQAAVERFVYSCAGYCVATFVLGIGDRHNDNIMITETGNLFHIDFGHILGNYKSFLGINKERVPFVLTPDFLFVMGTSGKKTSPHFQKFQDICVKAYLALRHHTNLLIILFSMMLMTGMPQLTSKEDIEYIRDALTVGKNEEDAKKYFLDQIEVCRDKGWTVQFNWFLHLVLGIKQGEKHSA
Protocol: Kinase Inhibition assays of p110α/p85α, p110β/p85α, p110δ/p85α and p110γ PI3K kinases including p110α/p85α, p110δ/p85α and p110γ are purchased from Invitrogen, and p110β/p85α is from Millipore. Primary screening data and IC50 values are measured using Transcreener™ KINASE Assay (Bellbrook, Catalog #3003-10K). […] It is a universal, homogenous, high throughput screening (HTS) technology using a far-red, competitive fluorescence polarization immunoassay based on the detection of ADP to monitor the activity of enzymes that catalyze group transfer reactions. Briefly, the Transcreener KINASE Assay is designed as a simple two-part, endpoint assay. […] The plate is sealed and incubated for 80 min at room temperature. Next, 25 ul ADP detection mix is added per well. The plate is sealed again and incubated for 60 min at room temperature, and then measure fluorescence polarization by Tecan Infinite F500 Reader. Data is analyzed and IC50s are generated using the add-in software for Microsoft Excel, Xlfit™ (version 2.0).

Sequence of p110β/p85α (P42338 whole entry): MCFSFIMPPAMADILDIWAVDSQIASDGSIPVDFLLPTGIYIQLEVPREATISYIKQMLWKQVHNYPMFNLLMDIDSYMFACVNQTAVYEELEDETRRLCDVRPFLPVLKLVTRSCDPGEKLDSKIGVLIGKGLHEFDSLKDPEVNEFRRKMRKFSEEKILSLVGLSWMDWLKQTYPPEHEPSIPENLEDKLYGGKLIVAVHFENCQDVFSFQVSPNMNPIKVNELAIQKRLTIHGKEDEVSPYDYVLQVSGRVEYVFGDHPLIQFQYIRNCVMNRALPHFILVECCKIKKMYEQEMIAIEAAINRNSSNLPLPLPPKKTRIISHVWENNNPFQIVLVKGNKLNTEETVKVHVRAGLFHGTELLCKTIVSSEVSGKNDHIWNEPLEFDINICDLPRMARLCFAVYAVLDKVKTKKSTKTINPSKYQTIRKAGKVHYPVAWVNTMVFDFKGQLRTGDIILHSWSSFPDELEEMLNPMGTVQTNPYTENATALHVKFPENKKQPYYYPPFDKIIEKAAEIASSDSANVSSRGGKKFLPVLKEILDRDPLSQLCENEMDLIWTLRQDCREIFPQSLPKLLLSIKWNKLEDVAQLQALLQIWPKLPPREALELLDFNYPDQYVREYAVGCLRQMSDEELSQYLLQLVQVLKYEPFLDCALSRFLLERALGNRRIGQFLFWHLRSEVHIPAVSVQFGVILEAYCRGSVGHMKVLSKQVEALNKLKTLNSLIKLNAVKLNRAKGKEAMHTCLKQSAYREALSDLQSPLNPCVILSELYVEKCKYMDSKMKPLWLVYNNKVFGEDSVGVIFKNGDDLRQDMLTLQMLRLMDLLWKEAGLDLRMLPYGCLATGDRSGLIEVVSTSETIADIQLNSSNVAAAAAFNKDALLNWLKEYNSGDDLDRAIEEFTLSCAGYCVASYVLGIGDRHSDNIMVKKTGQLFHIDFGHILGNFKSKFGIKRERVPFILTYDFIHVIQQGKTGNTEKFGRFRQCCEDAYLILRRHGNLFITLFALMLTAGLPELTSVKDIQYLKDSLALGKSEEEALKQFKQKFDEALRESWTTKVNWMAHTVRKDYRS
Sequence of p110β/p85α (P27986 2-724 partner): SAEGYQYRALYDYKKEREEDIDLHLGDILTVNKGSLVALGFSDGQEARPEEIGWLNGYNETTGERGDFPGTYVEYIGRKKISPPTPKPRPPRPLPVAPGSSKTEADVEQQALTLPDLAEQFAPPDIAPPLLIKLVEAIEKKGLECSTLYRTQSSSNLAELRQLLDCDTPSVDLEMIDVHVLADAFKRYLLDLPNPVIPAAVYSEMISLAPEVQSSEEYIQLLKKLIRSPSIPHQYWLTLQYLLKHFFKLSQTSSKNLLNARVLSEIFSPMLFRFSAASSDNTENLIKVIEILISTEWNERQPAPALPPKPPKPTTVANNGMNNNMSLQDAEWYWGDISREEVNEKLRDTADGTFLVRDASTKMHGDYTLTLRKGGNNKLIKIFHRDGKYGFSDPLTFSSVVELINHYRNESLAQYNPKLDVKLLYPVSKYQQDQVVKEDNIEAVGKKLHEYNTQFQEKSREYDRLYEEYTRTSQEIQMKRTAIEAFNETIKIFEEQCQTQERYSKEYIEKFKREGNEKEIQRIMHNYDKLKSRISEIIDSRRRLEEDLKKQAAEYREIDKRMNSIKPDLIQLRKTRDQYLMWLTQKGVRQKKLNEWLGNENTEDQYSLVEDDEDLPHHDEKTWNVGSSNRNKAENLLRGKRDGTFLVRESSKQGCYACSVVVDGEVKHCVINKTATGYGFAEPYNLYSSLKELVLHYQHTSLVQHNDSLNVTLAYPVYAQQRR

SMILES | PI3Kβ IH % @ 1 uM [1] [%] | PI3Kδ IH % @ 1 uM [2] [%] | PI3Kγ IH % @ 1 uM [3] [%] | IC50 [1] [nM] | IC50 [2] [nM] | IC50 [3] [nM]
CC(Nc1ncnc2[nH]cc(F)c12)c1cc2ncc(Cl)n2c(=O)n1-c1ccccc1 (single isomer, unassigned) [Compound 450] | 76.9 | 99.3 | 98.6 |  |  | 
CC(Nc1ncnc2[nH]cc(F)c12)c1cc2ncc(Cl)n2c(=O)n1-c1ccccc1 (single isomer, unassigned) [Compound 451] | 4.2 | 96.4 | 40.5 |  |  | 
CC(=O)c1cnc(N)nc1NC(C)c1cn2ccc(F)c2c(=O)n1-c1ccccc1 (single isomer, unassigned) [Compound 452] | 97.0 | >100 | 92.5 |  |  | 
CC(=O)c1cnc(N)nc1N1CC(C)(C)C1c1nn2ccc(Cl)c2c(=O)n1-c1ccccc1 (stereo in doubt) [Compound 484, (R)-2-(1-(5-acetyl-2-aminopyrimidin-4-yl)-3,3-dimethylazetidin-2-yl)-5-chloro-3-phenylpyrrolo[2,1-f][1,2,4]triazin-4(3H)-one] | 88.3 | >100 | >100 | 22 | 0.1 | 6
N#Cc1c(N)ncnc1N1CC[C@H]1c1nn2cccc2c(=O)n1-c1ccccc1 [Compound 8] | 33.3 | 76.2 | 40.2 |  | 272 | 
Nc1ncnc(N2CCC[C@H]2c2nn3ccc(Cl)c3c(=O)n2-c2ccccc2)c1Cl [Compound 27] | 82.6 | >100 | 92.7 | 100 | 3 | 51
COc1cccc(-n2c([C@@H]3CCN3c3ncnc4[nH]cnc34)nn3ccc(Cl)c3c2=O)c1 [Compound 33] | −3.1 | 71.9 | 63.7 |  | 212 | 
N#Cc1c[nH]c2ncnc(N3CC[C@H]3c3nn4ccc(Cl)c4c(=O)n3-c3ccc(F)cc3)c12 [Compound 37] | 30.6 | 81.2 | 83.3 |  |  | 89
N#Cc1cccc(-n2c([C@@H]3CCCN3c3ncnc4[nH]cc(C#N)c34)nn3ccc(Cl)c3c2=O)c1 [Compound 39] | 20.7 | 94.2 | 16.5 |  |  | 
N#Cc1cccc(-n2c([C@@H]3CCCN3c3ncnc4[nH]cnc34)nn3ccc(Cl)c3c2=O)c1 [Compound 40] | 19.8 | 74.0 | 6.5 |  |  | 
O=c1c2c(Cl)ccn2nc([C@@H]2CCCN2c2ncnc3[nH]cnc23)n1-c1ccc(F)cc1 [Compound 41] | 80.2 | 91.7 | >100 | 66 | 6 | 21
Cc1ccn2nc([C@@H]3CCCN3c3ncnc(N)c3Cl)n(-c3ccccc3)c(=O)c12 [Compound 45] | 71.9 | 100 | 80.9 | 795 |  | 172
N#Cc1c[nH]c2ncnc(N3CC[C@H]3c3nn4ccc(F)c4c(=O)n3-c3ccccc3)c12 [Compound 46] | 33.8 | >100 | 68.1 |  | 14 | 
O=c1c2c(Cl)ccn2nc([C@@H]2C[C@@H](F)CN2c2ncnc3[nH]cnc23)n1-c1ccccc1 [Compound 47] | 47.3 | >100 | 84.7 |  | 26 | 152
N#Cc1c[nH]c2ncnc(N3C[C@H](F)C[C@H]3c3nn4ccc(Cl)c4c(=O)n3-c3ccccc3)c12 [Compound 48] | 69.7 | 98.4 | 86.1 | 501 | 4 | 58
Nc1nc(N2CCC[C@H]2c2nn3ccc(Cl)c3c(=O)n2-c2ccccc2)ncc1C(F)(F)F [Compound 49] | −4.8 | 8.4 | 8.9 |  |  | 
Nc1ncc(C(F)(F)F)c(N2CCC[C@H]2c2nn3ccc(Cl)c3c(=O)n2-c2ccccc2)n1 [Compound 50] | 4.4 | >100 | 89.3 |  | 29 | 149
O=c1c2c(C3CC3)ccn2nc([C@@H]2CCCN2c2ncnc3[nH]cnc23)n1-c1ccccc1 [Compound 51] | −7.4 | 80.1 | 89.1 |  | 343 | 293
N#Cc1c[nH]c2ncnc(N3CCC[C@H]3c3nn4ccc(C5CC5)c4c(=O)n3-c3ccccc3)c12 [Compound 52] | 8.8 | 87.2 | 89.3 |  | 110 | 107
Nc1nc(N2CCC[C@H]2c2nn3ccc(C4CC4)c3c(=O)n2-c2ccccc2)c2nc[nH]c2n1 [Compound 53] | −11.0 | 68.8 | 86.4 |  |  | 35
Nc1nc2cccc(N3CCC[C@H]3c3nn4ccc(Cl)c4c(=O)n3-c3ccccc3)n2n1 [Compound 54] | 26.0 | 90.1 | 11.9 |  | 207 | 
N#Cc1c[nH]c2ncnc(N3CC[C@H]3c3nn4ccc(Br)c4c(=O)n3-c3ccccc3)c12 [Compound 55] | 23.8 | 97.6 | 99.5 |  | 8 | 67
O=c1c2c(Br)ccn2nc([C@@H]2CCN2c2ncnc3[nH]cnc23)n1-c1ccccc1 [Compound 56] | 21.7 | 91.1 | 83.9 |  |  | 
O=c1c2c(Cl)ccn2nc([C@@H]2CC(F)(F)CN2c2ncnc3[nH]cnc23)n1-c1ccccc1 [Compound 57] | 37.1 | 98.2 | 88.3 |  | 13 | 239
N#Cc1c[nH]c2ncnc(N3CC(F)(F)C[C@H]3c3nn4ccc(Cl)c4c(=O)n3-c3ccccc3)c12 [Compound 58] | 45.5 | >100 | 97.6 |  | 5 | 73
N#Cc1c[nH]c2ncnc(N3CC[C@H]3c3nn4ccc(Cl)c4c(=O)n3CC(F)F)c12 [Compound 59, (S)-4-(2-(5-chloro-3-(2,2-difluoroethyl)-4-oxo-3,4-dihydropyrrolo[2,1-f][1,2,4]triazin-2-yl)azetidin-1-yl)-7H-pyrrolo[2,3-d]pyrimidine-5-carbonitrile] | 34.7 | 73.6 | 45.8 |  | 392 | 
N#Cc1c[nH]c2ncnc(N3CC[C@H]3c3nn4ccc(Cl)c4c(=O)n3Cc3ccccn3)c12 [Compound 60] | 3.2 | 69.0 | 29.5 |  | 325 | 
